Results: US20200319163A1, “METHODS AND COMPOSITIONS OVERCOMING CANCER CELL IMMUNE RESISTANCE” (Georgetown University, priority 2019, published 2020)

System: ADCCR1 cells
Test: ADCC assay (specific lysis by NK92-CD16V effector cells) on ADCC-resistant cells
Format: cell-based, human
Details: ADCCR1 pretreated with inhibitor 0.01 to 10 μmol/L for 2 hours; ADCC assay at 4 hours; FIG. 4B, 4C
Text: Inhibitors of histone acetyltransferase C646 (cat. no. S7152), DNA methyltransferase azacytidine (cat. no. S1782), histone demethylase GSK J4 HCL (cat. no. S7070), and HDAC panobinostat (cat. no. S1030) were purchased from Selleck Chemicals. Inhibitors were solubilized in DMSO at […]. Vehicle treatment (DMSO) was used at the highest equivalent v/v used in inhibitor treatments.
ADCC assays were preformed using A431/ADCCS1/ADCCR1 as target cells and NK92-CD16V cells as the effector cells. Target cells are plated at 10,000 cells/well overnight (A431 cells double overnight).

## CC1=NN(c2ccc(C(=O)O)cc2)C(=O)/C1=C\c1ccc(-c2cc(C)c(C)cc2[N+](=O)[O-])o1 [C646]
  ADCC resistance / resensitization to ADCC (specific lysis): partially reversed
